# Measurements reported in PubChem BioAssay (NCI).
#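 1) Cells in 96-well plates. 2) Compound, 48 h, 5 concentrations. 3) Linear interpolation between surrounding doses. 4) Unreached endpoint = highest concentration. TGI is the concentration that stops growth completely.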
# Experiments:
# Test in all cases: inhibition of tumour cell growth, NCI panel, 48 h
# 786-0 renal = test system: 786-0 renal
# A498 renal = test system: A498 renal
# A549 NSCLC = test system: A549 NSCLC
# ACHN renal = test system: ACHN renal
# BT-549 breast = test system: BT-549 breast
# CAKI-1 renal = test system: CAKI-1 renal
# CCRF-CEM leukemia = test system: CCRF-CEM leukemia
# COLO 205 colon = test system: COLO 205 colon
# DU-145 prostate = test system: DU-145 prostate
# EKVX NSCLC = test system: EKVX NSCLC
# HCC-2998 colon = test system: HCC-2998 colon
# HCT-116 colon = test system: HCT-116 colon
# HCT-15 colon = test system: HCT-15 colon
# HOP-62 NSCLC = test system: HOP-62 NSCLC
# HOP-92 NSCLC = test system: HOP-92 NSCLC
# HS 578T breast = test system: HS 578T breast
# HT29 colon = test system: HT29 colon
# IGROV1 ovarian = test system: IGROV1 ovarian
# K-562 leukemia = test system: K-562 leukemia
# KM12 colon = test system: KM12 colon
# LOX IMVI melanoma = test system: LOX IMVI melanoma
# MALME-3M melanoma = test system: MALME-3M melanoma
# MCF7 breast = test system: MCF7 breast
# MDA-MB-231 breast = test system: MDA-MB-231 breast
# MDA-MB-435 = test system: MDA-MB-435
# MDA-N = test system: MDA-N
# MOLT-4 leukemia = test system: MOLT-4 leukemia
# NCI-H226 lung = test system: NCI-H226 lung
# NCI-H23 lung = test system: NCI-H23 lung
# NCI-H460 lung = test system: NCI-H460 lung
# NCI-H522 lung = test system: NCI-H522 lung
# NCI/ADR-RES ovarian = test system: NCI/ADR-RES ovarian
# OVCAR-3 ovarian = test system: OVCAR-3 ovarian
# OVCAR-4 ovarian = test system: OVCAR-4 ovarian
# OVCAR-5 ovarian = test system: OVCAR-5 ovarian
# OVCAR-8 ovarian = test system: OVCAR-8 ovarian
# PC-3 prostate = test system: PC-3 prostate
# RPMI-8226 leukemia = test system: RPMI-8226 leukemia
# SF-268 CNS = test system: SF-268 CNS
# SF-295 CNS = test system: SF-295 CNS
# SF-539 CNS = test system: SF-539 CNS
# SK-MEL-2 melanoma = test system: SK-MEL-2 melanoma
# SK-MEL-28 melanoma = test system: SK-MEL-28 melanoma
# SK-MEL-5 melanoma = test system: SK-MEL-5 melanoma
# SK-OV-3 ovarian = test system: SK-OV-3 ovarian
# SN12C renal = test system: SN12C renal
# SNB-19 CNS = test system: SNB-19 CNS
# SNB-75 CNS = test system: SNB-75 CNS
# SR leukemia = test system: SR leukemia
# SW-620 colon = test system: SW-620 colon
# T-47D breast = test system: T-47D breast
# TK-10 renal = test system: TK-10 renal
# U251 CNS = test system: U251 CNS
# UACC-257 melanoma = test system: UACC-257 melanoma
# UACC-62 melanoma = test system: UACC-62 melanoma
# UO-31 renal = test system: UO-31 renal
# HL-60(TB) leukemia = test system: HL-60(TB) leukemia
# M14 melanoma = test system: M14 melanoma
# RXF 393 renal = test system: RXF 393 renal
structure (smiles),measurement,setting,value
CO/C=C/C=C(\C#N)C(=O)OC,TGI,786-0 renal,> 100 µM
same,TGI,A498 renal,> 100 µM
same,TGI,A549 NSCLC,> 100 µM
same,TGI,ACHN renal,> 100 µM
same,TGI,BT-549 breast,> 100 µM
same,TGI,CAKI-1 renal,> 100 µM
same,TGI,CCRF-CEM leukemia,> 100 µM
same,TGI,COLO 205 colon,> 100 µM
same,TGI,DU-145 prostate,> 100 µM
same,TGI,EKVX NSCLC,> 100 µM
same,TGI,HCC-2998 colon,> 100 µM
same,TGI,HCT-116 colon,> 100 µM
same,TGI,HCT-15 colon,> 100 µM
same,TGI,HOP-62 NSCLC,> 100 µM
same,TGI,HOP-92 NSCLC,> 100 µM
same,TGI,HS 578T breast,> 100 µM
same,TGI,HT29 colon,> 100 µM
same,TGI,IGROV1 ovarian,> 100 µM
same,TGI,K-562 leukemia,> 100 µM
same,TGI,KM12 colon,> 100 µM
same,TGI,LOX IMVI melanoma,> 100 µM
same,TGI,MALME-3M melanoma,> 100 µM
same,TGI,MCF7 breast,> 100 µM
same,TGI,MDA-MB-231 breast,> 100 µM
same,TGI,MDA-MB-435,> 100 µM
same,TGI,MDA-N,> 100 µM
same,TGI,MOLT-4 leukemia,> 100 µM
same,TGI,NCI-H226 lung,> 100 µM
same,TGI,NCI-H23 lung,> 100 µM
same,TGI,NCI-H460 lung,> 100 µM
same,TGI,NCI-H522 lung,> 100 µM
same,TGI,NCI/ADR-RES ovarian,> 100 µM
same,TGI,OVCAR-3 ovarian,> 100 µM
same,TGI,OVCAR-4 ovarian,> 100 µM
same,TGI,OVCAR-5 ovarian,> 100 µM
same,TGI,OVCAR-8 ovarian,> 100 µM
same,TGI,PC-3 prostate,> 100 µM
same,TGI,RPMI-8226 leukemia,> 100 µM
same,TGI,SF-268 CNS,> 100 µM
same,TGI,SF-295 CNS,> 100 µM
same,TGI,SF-539 CNS,> 100 µM
same,TGI,SK-MEL-2 melanoma,> 100 µM
same,TGI,SK-MEL-28 melanoma,> 100 µM
same,TGI,SK-MEL-5 melanoma,> 100 µM
same,TGI,SK-OV-3 ovarian,> 100 µM
same,TGI,SN12C renal,> 100 µM
same,TGI,SNB-19 CNS,> 100 µM
same,TGI,SNB-75 CNS,> 100 µM
same,TGI,SR leukemia,> 100 µM
same,TGI,SW-620 colon,> 100 µM
same,TGI,T-47D breast,> 100 µM
same,TGI,TK-10 renal,> 100 µM
same,TGI,U251 CNS,> 100 µM
same,TGI,UACC-257 melanoma,> 100 µM
same,TGI,UACC-62 melanoma,> 100 µM
same,TGI,UO-31 renal,> 100 µM
CCOC(=O)c1cc(C2CCN(c3ccccc3)C2=O)c(/C(O)=C/C(C)=O)[nH]1 (centres undefined),TGI,786-0 renal,> 100 µM
same,TGI,A498 renal,> 100 µM
same,TGI,A549 NSCLC,> 100 µM
same,TGI,ACHN renal,> 100 µM
same,TGI,BT-549 breast,> 100 µM
same,TGI,CAKI-1 renal,> 100 µM
same,TGI,CCRF-CEM leukemia,> 100 µM
same,TGI,COLO 205 colon,> 100 µM
same,TGI,DU-145 prostate,> 100 µM
same,TGI,EKVX NSCLC,> 100 µM
same,TGI,HCC-2998 colon,> 100 µM
same,TGI,HCT-116 colon,> 100 µM
same,TGI,HCT-15 colon,> 100 µM
same,TGI,HL-60(TB) leukemia,76 µM
same,TGI,HOP-62 NSCLC,> 100 µM
same,TGI,HS 578T breast,> 100 µM
same,TGI,HT29 colon,> 100 µM
same,TGI,IGROV1 ovarian,> 100 µM
same,TGI,K-562 leukemia,> 100 µM
same,TGI,KM12 colon,> 100 µM
same,TGI,LOX IMVI melanoma,> 100 µM
same,TGI,M14 melanoma,> 100 µM
same,TGI,MALME-3M melanoma,> 100 µM
same,TGI,MCF7 breast,> 100 µM
same,TGI,MDA-MB-231 breast,> 100 µM
same,TGI,MDA-MB-435,> 100 µM
same,TGI,MDA-N,> 100 µM
same,TGI,MOLT-4 leukemia,> 100 µM
same,TGI,NCI-H226 lung,> 100 µM
same,TGI,NCI-H23 lung,> 100 µM
same,TGI,NCI-H460 lung,> 100 µM
same,TGI,NCI-H522 lung,> 100 µM
same,TGI,NCI/ADR-RES ovarian,> 100 µM
same,TGI,OVCAR-3 ovarian,> 100 µM
same,TGI,OVCAR-4 ovarian,> 100 µM
same,TGI,OVCAR-5 ovarian,> 100 µM
same,TGI,OVCAR-8 ovarian,> 100 µM
same,TGI,PC-3 prostate,> 100 µM
same,TGI,RPMI-8226 leukemia,> 100 µM
same,TGI,RXF 393 renal,55.6 µM
same,TGI,SF-268 CNS,> 100 µM
same,TGI,SF-295 CNS,> 100 µM
same,TGI,SF-539 CNS,31.9 µM
same,TGI,SK-MEL-2 melanoma,> 100 µM
same,TGI,SK-MEL-28 melanoma,> 100 µM
same,TGI,SK-MEL-5 melanoma,> 100 µM
same,TGI,SK-OV-3 ovarian,> 100 µM
same,TGI,SN12C renal,> 100 µM
same,TGI,SNB-19 CNS,> 100 µM
same,TGI,SNB-75 CNS,> 100 µM
same,TGI,SR leukemia,> 100 µM
same,TGI,SW-620 colon,> 100 µM
same,TGI,T-47D breast,> 100 µM
same,TGI,TK-10 renal,> 100 µM
same,TGI,U251 CNS,> 100 µM
same,TGI,UACC-257 melanoma,> 100 µM
same,TGI,UACC-62 melanoma,> 100 µM
same,TGI,UO-31 renal,> 100 µM
